“Also recorded” adds a separate entry of the source.
How the values were obtained:
Type in all cases: biochemical
ALKBH2 = molecular target: T1, ALKBH2 (Homo sapiens, UniProt Q6NS38); experiment: Dot blot-based assay for ALKBH2 on genomic DNA; details: genomic DNA from HEK293T cells, 6 (µM): 100
T1 construct: we recombinantly expressed the catalytic domains of 12 wild type dioxygenases; 6xHis (N); made in house; host or cells: E. coli BL21 (DE3)

wild type KDM4A = molecular target: T2, wild type KDM4A (Homo sapiens, UniProt O75164); experiment: MALDI-MS end-point demethylase assay on H3K9me3 peptide
T2 construct: human KDM4A-jmjC domain (catalytic domain of KDM4A); 6xHis (N); host or cells: E. coli BL21 (DE3)
T2 sequence (O75164 142-308 limits assumed): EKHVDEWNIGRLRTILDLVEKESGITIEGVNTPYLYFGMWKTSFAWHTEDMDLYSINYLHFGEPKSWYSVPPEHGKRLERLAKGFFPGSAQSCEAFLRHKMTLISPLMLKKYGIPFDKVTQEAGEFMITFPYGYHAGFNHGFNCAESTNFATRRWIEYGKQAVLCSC
Excerpt: To develop an appropriate inhibitor, we selected N-oxalyl glycine (NOG, 2) scaffold because of its structural similarity with 2OG and the ability to inhibit 2OG-utilizing enzymes including KDMs (Figure 1C).[29]−[31] Substituting −CH2– at C3 of 2OG with −NH– in NOG prevents its oxidative decarboxylation by KDMs, making the inhibitor cofactor-competitive. […] We synthesized a panel of eight NOG analogues (3–10), derived from L-amino acids, carrying varied steric substituents at C4, with the reasoning that a bulky substituent at C4 would selectively fit into the expanded pocket of F185A over wild type KDM4A (Figures 2B and S1–S6, Schemes S1 and S2). The inhibitory effect of each compound was determined based on the extent of enzyme-catalyzed demethylation of a canonical peptide substrate corresponding to the N-terminus of histone 3 carrying trimethylated lysine at position 9 (H3K9me3). […] Such orthogonal inhibition of the engineered demethylase constitutes a powerful chemical probe to study the functions of a specific member of an enzyme family without issues of off-target activity.
assay (Biorad) kit with BSA concentrations as a standard. […]
8. […]
2 mM L-ascorbic acid with a total assay volume of 10 µL. Fe(II) supplement and L-ascorbic acid
Lastly, the 2OG and peptide were
positive mode and analyzed on Bruker FlexAnalysis software. The percent demethylated peptide
the multiple demethylation events on the peptide. […]

PHD2 (EGLN1) = molecular target: T3, PHD2 (EGLN1) (Homo sapiens, UniProt Q9GZT9); experiment: MALDI-based assay EGLN1 prolyl hydroxylation of peptide; details: MALDI-TOF, peptide substrate
T3 construct: Full length EGLN1 construct plasmid with; TEV-His (N); host or cells: E. coli BL21 (DE3)
T3 sequence (Q9GZT9 whole entry): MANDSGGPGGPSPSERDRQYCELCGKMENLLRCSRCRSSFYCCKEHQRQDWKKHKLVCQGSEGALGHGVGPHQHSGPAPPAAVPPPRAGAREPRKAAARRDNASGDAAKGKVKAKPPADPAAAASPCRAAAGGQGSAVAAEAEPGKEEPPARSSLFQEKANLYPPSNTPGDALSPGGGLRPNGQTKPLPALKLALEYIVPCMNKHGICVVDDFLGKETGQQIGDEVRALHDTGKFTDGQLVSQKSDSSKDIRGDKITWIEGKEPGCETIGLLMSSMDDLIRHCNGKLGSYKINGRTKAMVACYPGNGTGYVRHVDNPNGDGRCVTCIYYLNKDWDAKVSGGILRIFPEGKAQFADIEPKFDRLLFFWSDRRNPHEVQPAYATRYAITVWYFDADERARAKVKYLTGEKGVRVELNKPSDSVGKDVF
Experimental: demethylation events on the peptide. The percent peak area was calculated, and the K27me2, me1,
and me0 peaks were summed to get the relative percent demethylated peptide.
MALDI-based assay for FTO and ALKBH5: To determine the enzymatic activity of FTO and
ALKBH5 recombinant proteins in the presence of L-Leu NOG 6, a previously published methods
were utilized.15, 18 Briefly,10 µM of each protein was incubated in the presence of 10 µM RNA
7.5, 150 mM KCl, 50 µM L-Leu NOG or equivalent volume of water in 10 µL aliquots. The
samples were placed on ice for 10 minutes followed by addition of 200 µM 2OG or equivalent
volume of water. After incubation at 37 °C for 30 minutes, samples were desalted with 3 µL of BT
spotted on a MALDI plate with 1uL sample and 1uL of 3-HPA matrix and monitored with Bruker
FlexControl in the reflectron negative mode and analyzed on Bruker FlexAnalysis software.
Relative inhibition was monitored via assessing percent product decrease with L-Leu NOG
MALDI-based assay for C14orf169 (NO66) and MINA: To monitor the enzymatic activity of […]
1 µL S-DHB matrix were spotted on a MALDI plate and monitored with Bruker FlexControl in
the reflectron positive mode and analyzed on Bruker FlexAnalysis software. […]
was monitored via assessing percent product decrease with L-Leu NOG samples compared to no […]
monitored following a reported method.19 To monitor the enzymatic activity of EGLN1 and 3 […]

T1 sequence (Q6NS38 152-257 limits assumed): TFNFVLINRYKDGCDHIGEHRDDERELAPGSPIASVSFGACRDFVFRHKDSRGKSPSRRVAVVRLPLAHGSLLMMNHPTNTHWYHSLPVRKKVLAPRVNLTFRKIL

CC(C)CC(NC(=O)C(=O)O)C(=O)O (stereo not shown) [compound 6, N-oxalyl leucine]
inhibition of ALKBH2 (ALKBH2): No inhibition | inhibition of wild type KDM4A demethylase activity (MALDI-MS) (wild type KDM4A; H3K9me3 peptide, 200 µM 2OG, fixed concentration of NOG analogue): without affecting | dose-dependent inhibition of wild type KDM4A (wild type KDM4A; up to 500 μM): no inhibitory effect; also recorded: does not inhibit | inhibition of PHD2 (PHD2 (EGLN1)): No inhibition

From article PMC11783601, “Analogue-Sensitive Inhibition of Histone Demethylases Uncovers Member-Specific Function in Ribosomal Protein Synthesis” (Journal of the American Chemical Society, 2025)
